The text below walks through data of patent publication US4977155A, “1,2,3-triazolo compounds” (priority 1988, dated 1990).

Assay [1] concerns the target quisqualate type receptors. In words: 3H-AMPA binding (Test 1). The note with it: rat cerebral cortical membrane homogenate; 5 nM 3H-AMPA; 0° C., 30 min, pH 7.1. From the text: The quisqualate receptor binding activity of the compounds of the present invention can be illustrated by determining their capability for displacing radioactively labelled 2-amino-3-hydroxy-5-methyl-4-isoxazolepropionic acid (AMPA) from the quisqualate type receptors.
The displacement activity of the compounds may be shown by determining the IC50 value which represents the concentration (μg/ml) which causes a displacement of 50% of the specific binding of ^3 H-AMPA.
^3 H-AMPA binding (Test 1)
500 μl of thawed rat cerebral cortical membrane homogenate in Tris-HCl (30 mM), CaCl2 (2.5 mM) and KSCN (100 mM) pH 7.1 were incubated at 0° C. for 30 min. with 25 μl ^3 H-AMPA (5 nM final concentration) and the test compound and buffer. Non-specific binding was determined by incubation with L-glutamic acid (600 μM final concentration). The binding reaction was terminated by adding 5 ml of ice-cold buffer followed by filtration through Whatman GF/C glass fibre filters and 2×5 ml wash with ice-cold buffer. Bound radioactivity was measured by scintillation counting. IC50 was determined by Hill analysis of at least four concentrations of test compound.

For assay [2], the system named is N-methyl-D-aspartate (NMDA) receptors. The note with it: cited from earlier work.
Assay [3] has as its system Quisqualate receptors. The note with it: in words, background; cited from earlier work.
Assay [4] relates to NMDA stimulated ^3 H-GABA release from cultured mouse cortex neurons. Put plainly: Inhibition of NMDA stimulated 3H-GABA release from cultured mouse cerebral cortex interneurons (Test 3). The format is cell-based. The conditions noted are these: Neuron, 3 μg/ml NMDA, read-out: Test 3 IC50 (inhibits 50% of NMDA induced 3H-GABA release). An excerpt: The NMDA antagonistic properties of the compounds is illustrated by determining their capability to antagonize NMDA stimulated ^3 H-GABA release from cultured mouse cortex neurons.
The NMDA antagonistic activity of the compounds may be shown by determining the IC50 value, which represents the concentration (μg/ml) which inhibits 50% of NMDA induced ^3 H-GABA release.
Inhibition of NMDA stimulated ^3 H-GABA release from cultured mouse cerebral cortex interneurons (Test 3) Release experiments are performed using the model described by Drejer et al. (Life Sci. 38, 2077 (1986)). To cerebral cortex interneurons cultured in petri dishes (30 mm) are added 100 μg/ml 3-vinyl-GABA one hour before the experiment in order to inhibit degradation of GABA in the neurons. 30 min before the experiment 5 μCi ^3 H-GABA is added to each culture and after this preloading period the cells are washed twice with a HEPES (N-2 Hydroxyethylpiperazine-N'-2-ethanesulfonic acid) buffered saline (HBS) containing 10 mM HEPES, 135 mM NaCl, 5 mM KCl, 0.6 mM MgSO4, 1.0 mM CaCl2 and 6 mM D-glucose; pH 7 and placed in a superfusion system. This system consists of a peristaltic pump continuously delivering thermostated 37° C. superfusion medium from a reservoir to the top of a slightly-tilted petri dish. The cell monolayer at the bottom of the dish is covered with a piece of nylon mesh to facilitate dispersion of medium over the cell layer. The medium is continuously collected from the lower part of the dish and delivered to a fraction collector. Initially, the cells are superfused with HBS for 15 min (flow rate 2 ml/min). Then cells are stimulated for 30 sec every 4 min by changing the superfusion medium from HBS to a corresponding medium containing NMDA and antagonists according to the following scheme: […]
stimulation no. 1: 3 μg/ml NMDA stimulation no. 2: 3 μg/ml NMDA+0.3 μg/ml antagonist stimulation no. 3: 3 μg/ml NMDA+3 μg/ml antagonist
Test substances are dissolved in water or 48% ethanol. The final ethanol concentration in the assay must not exceed 0.1%.
The release of ^3 H-GABA in the presence of NMDA (stimulated relase in cpm) are corrected for the mean basal release (cpm) before and after the stimulation.
The stimulated release in the presence of antagonists are expressed relative to the stimulated release by NMDA alone and the IC50 value for the antagonist is calculated (the concentration (μg/ml) of the test substance which inhibits 50% of the NMDA induced ^3 H-GABA release) either from a dose response curve or from the formula: [formula] where Co is stimulated release in control assays and Cx is the stimulated release in the test assay (the calculation assumes normal mass-action interaction). 25-75% inhibition of the NMDA stimulation must be obtained, before calculation of IC50.

Assay [5] has as its system kainate receptors. The note with it: in words, background; cited from earlier work.
Assay [6] relates to quisqualic acid stimulated Na^+ -efflux from rat striatal slices. Put plainly: Antagonism of quisqualic acid induced 22Na+ release (Test 2). It counts as cell-based. The conditions noted are these: rat striatum slices; quisqualic acid 2 μg/ml; read-out: Test 2 EC50 (reduces rate of quisqualic acid stimulated sodium efflux by 50%). The method, then:
The quisqualate antagonism is measured by determining the EC50 value which represents the concentration which reduces the rate of quisqualic acid stimulated sodium efflux by 50%.
Antagonism of quisqualic acid induced ^22 Na^+ -release (Test 2)
Slices from rat striatum were preincubated with ^22 Na^+ for 30 min. After the ^22 Na^+ loading period, the slices were successively and every minute transferred through a series of tubes, each containing 1.5 ml of a non-radioactive physiological solution saturated with O2, with the help of a basket shaped sieve. Quisqualic acid (2 μg/ml) was present in the last 5 tubes and the compound to be tested was present in the same 5 tubes plus 3 tubes before. The amount of radioactivity in each washout tube as well as that left in the slices at the end of the experiment was measured by scintillation counting. EC50 were calculated by Hill analysis from at least three different concentrations of test compound as the concentration of test compound which reduces the efflux rate of ^22 Na^+ -ions to 50% of the efflux rate in the absence of test compound.

Converted amounts (≈) assume the structure as drawn. Read-outs that look alike come from different tables or passages of the source.

Broadly, the IC50 is the midpoint of a concentration-inhibition curve. As usually defined, the EC50 is the midpoint of the concentration-response curve.

As to `Oc1nc2ccc3sccc3c2nc1O` [Ex 39, 2,3-Dihydroxythieno[3,2-f]quinoxaline], the “Test 1 IC50 (displacement of 50% of the specific binding of 3H-AMPA)” value in assay [1] was 1,9 μg/ml.

For the molecule `Oc1nc2ccc3nn[nH]c3c2nc1O` [Ex 1, 7,8 Dihydroxy-1H-1,2,3-triazolo[4,5-f]quinoxaline], in assay [1], the “Test 1 IC50 (displacement of 50% of the specific binding of 3H-AMPA)” value is 13,3 μg/ml.

Regarding `N[C@H](CCCCCP(=O)(O)O)C(=O)O` [D-APH, 2-amino-7-phosphonoheptanoic acid], in assay [2] (in words, background), the “antagonist activity on NMDA receptors” value was “most potent and selective antagonists”.

As for `N[C@@H](Cn1oc(=O)[nH]c1=O)C(=O)O` [quisqualic acid], the “agonist activity on quisqualate receptors” value in assay [3] is given as “activated selectively”.

On to `O=[N+]([O-])c1cc2nc(O)c(O)nc2c2nsnc12` [Ex 38, 7,8-Dihydroxy-4-nitro-1,2,5-thiadiazolo(3,4-f)quinoxaline], for which the IC50 in assay [4] is 0.09 µg/mL (≈ 0.339 µM). For the same molecule, the “Test 1 IC50 (displacement of 50% of the specific binding of 3H-AMPA)” value in assay [1] is recorded as 0,13 μg/ml.

Take `CCOC(=O)CC[C@H](N)C(=O)OCC` [GDEE, Glutamic acid diethyl ester]: the “antagonist activity on quisqualate receptors” value in assay [3] is on record as “selective but very weak antagonist”.

With `O=[N+]([O-])c1cc2nc(O)c(O)nc2c2nonc12` [Ex 24, 7,8-Dihydroxy-4-nitro-l,2,5-oxadiazolo(3,4-f)quinoxaline], the IC50 in assay [4] amounted to 0.13 µg/mL (≈ 0.522 µM). Moreover, the “Test 1 IC50 (displacement of 50% of the specific binding of 3H-AMPA)” value in assay [1] is on record as 0,23 μg/ml.

In the case of `N[C@H](CCC[C@H](N)C(=O)O)C(=O)O` [diaminopimelic acid], in assay [2] (in words, background), the “antagonist activity on NMDA receptors” value is “moderate antagonist activity”.

`N[C@@H](CCC(=O)NCC(=O)O)C(=O)O` [3-glutamyl-glycine]: in assay [5], the “selectivity for kainate receptors” value is “some selectivity for kainate receptors”.

Take `N[C@H](CCCC(=O)O)C(=O)O` [D-2-amino-adipic acid]: the “antagonist activity on NMDA receptors” value in assay [2] (in words, background) was “moderate antagonist activity”.

For the molecule `N[C@@H](CCC(=O)O)C(=O)O` [L-glutamic acid], in assay [3], the “agonist activity on quisqualate receptors” value is on record as “potent agonists”.

For the molecule `Cc1onc(O)c1CC(N)C(=O)O` (stereo not drawn) [AMPA, 2-amino-3-hydroxy-5-methyl-4-isoxazolepropionic acid], the “agonist activity on quisqualate receptors” value in assay [3] is recorded as “potent agonists”.

As for `N[C@@H](CCS(=O)(=O)O)C(=O)O` [L-homocysteic acid], the “agonist activity on NMDA receptors” value in assay [2] (in words, background) was “strong to moderate agonist activity”.

For `N[C@H](C(=O)O)c1cc(=O)[nH]o1` [Ibotenic acid], the “agonist activity on NMDA receptors” value in assay [2] (in words, background) is “strong to moderate agonist activity”.

Regarding `N[C@H](CCC(=O)O)C(=O)O` [D-glutamic acid], the “agonist activity on NMDA receptors” value in assay [2] is reported as “strong to moderate agonist activity”.

As to `O=[N+]([O-])c1cc2nc(O)c(O)nc2c2nccnc12` [Ex 35, 2,3-Dihydroxy-6-nitropyrazino(2,3-f)quinoxaline], the IC50 in assay [4] is 0.1 µg/mL (≈ 0.386 µM). Also, the “Test 1 IC50 (displacement of 50% of the specific binding of 3H-AMPA)” value in assay [1] is 0,39 μg/ml.

Turning to `O=[N+]([O-])c1cc2nc(O)c(O)nc2c2[nH]nnc12` [Ex 2, 7,8-Dihydroxy-4-nitro-1H-1,2,3-triazolo[4,5-f]quinoxaline], the IC50 in assay [4] is 0.26 µg/mL (≈ 1.05 µM). The EC50 in assay [6] came out at 10 µg/mL (≈ 40.3 µM). Moreover, in assay [1], the “Test 1 IC50 (displacement of 50% of the specific binding of 3H-AMPA)” value is given as 0,85 μg/ml.

As to `O=C(O)[C@@H]1CCCN[C@H]1C(=O)O` (relative stereo) [trans-2,3-PDA, trans-2,3-piperidine dicarboxylic acid], the “agonist activity on NMDA receptors” value in assay [2] (in words, background) is “strong to moderate agonist activity”.

On to `O=[N+]([O-])c1cc2nc(O)c(O)nc2c2scnc12` [Ex 17, 7,8-Dihydroxy-4-nitrothiazolo[5,4-f]quinoxaline], for which the “Test 1 IC50 (displacement of 50% of the specific binding of 3H-AMPA)” value in assay [1] is given as 0,21 μg/ml.

For `Cn1nnc2c3nc(O)c(O)nc3cc([N+](=O)[O-])c21` [Ex 13, 7,8-Dihydroxy-3-methyl-4-nitro-3H-1,2,3-triazolo[4,5-f]quinoxaline], the IC50 in assay [4] came to 0.11 µg/mL (≈ 0.42 µM). Besides, the “Test 1 IC50 (displacement of 50% of the specific binding of 3H-AMPA)” value in assay [1] is 0,07 μg/ml.

As for `N#Cc1cc2nc(O)c(O)nc2c2[nH]nnc12` [Ex 4, 4-Cyano-7,8-dihydroxy-1H-1,2,3-triazolo[4,5-f]quinoxaline], in assay [1], the “Test 1 IC50 (displacement of 50% of the specific binding of 3H-AMPA)” value worked out at 10 µg/mL.

As for `O=[N+]([O-])c1cc2nc(O)c(O)nc2c2[nH]ncc12` [Ex 9, 7,8-Dihydroxy-4-nitro-1H-pyrazolo[3,4-f]quinoxaline], the half-inhibitory concentration (IC50) in assay [4] came out at 0.14 µg/mL (≈ 0.566 µM). In addition, in assay [1], the “Test 1 IC50 (displacement of 50% of the specific binding of 3H-AMPA)” value is 0,41 μg/ml.

As for `Cn1nc2c([N+](=O)[O-])cc3nc(O)c(O)nc3c2n1` [Ex 11, 7,8-Dihydroxy-2-methyl-4-nitro-2H-1,2,3-triazolo[4,5-f]quinoxaline], in assay [4], the IC50 came out at 0.14 µg/mL (≈ 0.534 µM). The “Test 1 IC50 (displacement of 50% of the specific binding of 3H-AMPA)” value in assay [1] is recorded as 0,36 μg/ml.

Turning to `Cc1nc2c([N+](=O)[O-])cc3nc(O)c(O)nc3c2nc1C` [Ex 36, 2,3-Dihydroxy-8,9-dimethyl-6-nitropyrazino(2,3-f)quinoxaline], the IC50 in assay [4] is 0.14 µg/mL (≈ 0.487 µM). The “Test 1 IC50 (displacement of 50% of the specific binding of 3H-AMPA)” value in assay [1] is 0,39 μg/ml.

For `Cn1nnc2c3nc(O)c(O)nc3cc(C#N)c21` [Ex 15, 4-Cyano-7,8-dihydroxy-3-methyl-3H-1,2,3-triazolo[4,5-f]quinoxaline], the IC50 in assay [4] was found to be 0.73 µg/mL (≈ 3.01 µM). Moreover, the “Test 1 IC50 (displacement of 50% of the specific binding of 3H-AMPA)” value in assay [1] is listed as 0,19 μg/ml.

For the molecule `Cn1nnc2c([N+](=O)[O-])cc3nc(O)c(O)nc3c21` [Ex 6, 7,8-Dihydroxy-1-methyl-4-nitro-1H-1,2,3-triazolo[4,5-f]quinoxaline], in assay [4], the IC50 came to 0.096 µg/mL (≈ 0.366 µM). The concentration giving a half-maximal response (EC50) in assay [6] is 4.1 µg/mL (≈ 15.6 µM). In assay [1], the “Test 1 IC50 (displacement of 50% of the specific binding of 3H-AMPA)” value was 0,31 μg/ml.

For the molecule `N[C@H](CCCP(=O)(O)O)C(=O)O` [D-APV, 2-amino-5-phosphono-valeric acid], in assay [2] (in words, background), the “antagonist activity on NMDA receptors” value is “most potent and selective antagonists”.
